Laboratory results reported in patent US20100015126A1, “Methods of Binding of Cross-Beta Structures By Chaperones” (priority 2006, published 2010).

Legend:
HUVECs = assay: FACS: binding of misfolded proteins and BiP to HUVECs; format: cell-based, human
Procedure: For these experiments HUVECs were isolated by trypsinization. After trypsinization cells were collected in RPMI 1640, containing P/S and 10% FCS and centrifuged. After centrifugation cells were resuspended in RPMI medium without FCS at a concentration of 1.250.000 cells/250 μl. Individual 4-ml tubes (polypropylene, Greiner), containing 250 μl cell suspensions were made. To each tube 75 μl of a sample, containing either, • a. buffer (PBS) only, or • b. 25 μl PBS+50 μl BiP (1.16 mg/ml), or • c. 50 μl buffer with 25 μl oxLDL (1 mg/ml), or • d. 74 μl buffer with 1 μl BSA-AGE (25 mg/ml), or • e. 24 μl PBS+1 μl BSA-AGE (25 mg/ml)+50 μl BiP (1.16 mg/ml), or • f. 25 μl oxLDL (1 mg/ml)+50 μl BiP (1.16 mg/ml), • g. 1.6 μl dIgIV-65 (20 mg/ml)+73.4 μl PBS • h. […]
was added. Subsequently, the cells were incubated with the sample for approximately 30 minutes at 4° C. Next, cells were pelleted by centrifugation and the supernatant was discarded. Cells were washed subsequently with FACS buffer (PBS/0.5% BSA/0.05% m/v NaN3) at 4° C. and resuspended in FACS-buffer at approximately 1*10^5 cells/100 μl for subsequent analysis. Cell death was determined by adding 3 μl 7-aminoactinomycin D (7AAD) solution (prepared according to standard procedures). Binding of sample BSA-AGE (see elsewhere in this application for preparation details) was determined with anti-AGE monoclonal antibody 4B5 (10 μg/ml) and, after washing, with goat anti-mouse PE secondary antibodies (Jackson Immunoresearch, West Grove, USA). Binding of BSA-AGE was also assessed using the intrinsic fluorescence of BSA-AGE in the PE channel. Binding of oxidized LDL (oxLDL, oxidized for 56% following incubation with FeSO4; specific enhancement of Thioflavin T fluorescence) was determined with rabbit serum with anti-ApoB100 polyclonal antibodies at a concentration of 160 μg/ml and, after washing the cells, with FITC-labelled goat anti-rabbit antibodies (1:200, Jackson). Binding of dIgIV-65 was assessed by using anti-Human IgG antibody. BiP binding was determined using the earlier mentioned anti-FLAG antibody (M2, Sigma-Aldrich).

[1] = test system: freshly isolated human platelets; assay: Crossbeta-induced human platelet aggregation (aggregometer); format: cell-based; settings: 8 μM TRAP
[2] = test system: human monocyte-derived dendritic cells; assay: FACS: binding of misfolded proteins and BiP to human monocyte-derived dendritic cells; format: cell-based
Excerpt: In vitro generation of peripheral blood human monocyte-derived dendritic cells, and analyses for binding of misfolded proteins and BiP
Human DCs are generated from non-proliferating precursors selected from peripheral blood mononuclear cells (PBMCs), essentially by published methods (Sallustro and Lanzavecchia [1994], J. Exp. Med. 179 1109-1118). Relative abundant presence of CD1a, CD32, CD36, CD40, CD54, CD86, HLA-DR and CD206 and relative low content of CD14 positive, CD16 positive, CD64 positive, CD80 positive, CD83 positive and CD163 positive cells serve as a quality measure for the immature DCs. After obtaining the immature DCs upon stimulation with GM-CSF and IL-4, direct binding of misfolded proteins and BiP to the DCs is assessed by incubating 200.000 cells (2*10^6 cells/ml) for 30 minutes at 4° C. under metabolic arrested state, with 1) PBS, 2) 58 μg/ml BiP (830 nM), 4) 250 μg/ml BSA-AGE (3.6 μM), 5) BSA-AGE+BiP, 6) 250 μg/ml oxLDL, 7) oxLDL+BiP, 8) mixture of BiP-binding peptides 6BB8-11, 13 (see Table 5), 125 μg/ml+BiP, and 8) 62.5 μg/ml Aβ16-22, 62.5 μg/ml Aβ25-35+BiP. After the incubation and careful washing of the cells, binding of BiP, BSA-AGE and oxLDL is assessed with FACS, using primary antibodies monoclonal anti-FLAG antibody, monoclonal anti-glycated human fibronectin antibody 4B5 and rabbit serum with anti-human apoliprotein B-100 antibody (Dade Behring, Newark, Del., USA), and the appropriate FITC- or PE-labeled secondary antibody. Mean fluorescence intensity (MFI) ratio's are determined by measuring background fluorescence.

[3] = test system: freshly isolated human platelets; assay: Crossbeta-induced human platelet aggregation (aggregometer); format: cell-based
Procedure: Ex vivo Human Blood Platelet Aggregation Assay
The influence of crossbeta structure binding chaperones on blood platelet aggregation induced by crossbeta structure or crossbeta structure comprising pathogens is tested with washed platelets or with platelet rich plasma in an aggregometric assay. Freshly drawn human aspirin free blood is mixed gently with citrate buffer to avoid coagulation. Blood is spinned for 15′ at 150*g at 20° C. and supernatant is collected; platelet rich plasma (PRP). Buffer with 2.5% trisodium citrate, 1.5% citric acid and 2% glucose, pH 6.5 is added to a final volume ratio of 1:10 (buffer-PRP). After spinning down the platelets upon centrifugation for 15′ at 330*g at 20° C., the pellet is resuspended in HEPES-Tyrode buffer pH 6.5. Prostacyclin is added to a final concentration of 10 ng/ml, and the solution is centrifuged for 15′ at 330*g at 20° C., with a soft brake. The pellet is resuspended in HEPES-Tyrode buffer pH 7.2 in a way that the final platelet number is adjusted to 200,000-250,000 platelets/μl. Platelets are kept at 37° C. for at least 30′, before use in the assays, to ensure that they are in the resting state. Platelets of approximately five donors are isolated separately.
For the aggregometric assays, platelet solution is added to a glass tube and prewarmed to 37° C. A stirring magnet is added and rotation is set to 900 rpm, and the apparatus (Whole-blood aggregometer, Chrono-log, Havertown, Pa., USA) is blanked. A final volume of 1/10 of the volume of the platelet suspension is added, containing the agonist of interest and/or the premixed antagonist of interest, prediluted in HEPES-Tyrode buffer pH 7.2. Aggregation is followed in time by measuring the absorbance of the solution, that is decrease in time upon platelet aggregation. As a positive control, either 10 μg/ml collagen (Kollagenreagens Horm, NYCOMED Pharma GmbH, Linz, Austria; lot 502940), or 5 μM of synthetic thrombin receptor activating compound TRAP. In tests to analyse the effect of chaperones, 10-100 μg/ml glycated haemoglobin or 10-100 μg/ml amyloid-β is used to induce platelet aggregation. Aggregation is recorded for at least 15′.
Platelet aggregation-studies with freshly isolated human platelets were performed as described above. For aggregation studies, platelets of four separate donors were used on subsequent days.

Binding of BiP to HUVECs (MFI ratio) (HUVECs; BiP alone): 1.4
Binding of BiP to ECs (HUVECs; co-incubated with dIgIV-86): neither BiP did bind
Substance: BiP: Recombinant human HSP70 family chaperone BiP with C-terminal linker, FLAG-tag and His-tag, expressed in HEK 293E cells
TRAP-induced platelet aggregation [1]: unaffected
Binding of BiP to DCs (MFI ratio) ([2]; BiP alone, 58 μg/ml, 30 minutes at 4° C.): 1.4
Binding to DCs (MFI ratio), BiP ([2]; FACS, human dendritic cells, detection of BiP, signal divided by background signal): 1.4
Platelet aggregation by protein alone, without activator [3]: did not induce platelet aggregation
Misfolded protein induced platelet aggregation ([3]; activators Aβ42t=0, HbAGE, BSA-AGE, four donors): potently inhibited
Platelet aggregation induced by amyloid-β1-42 ([3]; donor a): strongly inhibited
Platelet aggregation induced by crossbeta BSA-AGE ([3]; donor a): strongly inhibited
Platelet aggregation induced by Aβ1-42 ([3]; donor b, Aβ42t=0 26.7 μg/ml): inhibited
Platelet aggregation induced by crossbeta BSA-AGE ([3]; donor b, BSA-AGE 33.3 μg/ml): strongly inhibited
Aβ42 induced platelet activation ([3]; donor c): abolish
BSA-AGE induced platelet aggregation ([3]; donor c): inhibit
HbAGE induced platelet aggregation ([3]; donor c): inhibited
HbAGE induced platelet aggregation ([3]; donor d, BiP 58 μg/ml, sRAGE 37.4 μg/ml, HbAGE 80 μg/ml): inhibits
